Measurements from PMC10783087 (Microbiology Spectrum, 2023).
In brackets after ≈: the same amount, converted by molar mass. Several values for one entry are separate records, joined by “and”; a condition that tells them apart may be missing. Equal values may be shown once. Read-outs that look alike come from different tables or passages of the source.

What was measured:
M. abscessus ATCC 19977 = assay: In vitro MIC against NTM, microbroth dilution; assay type: cell-based; conditions: 7 days
Erdman = assay: microbe, parasite or virus in culture; assay type: cell-based; conditions: Mycobacterium tuberculosis
[1] = tested on: M. abscessus ATCC 19977 in THP-1 cells; assay: Ex vivo (intra-macrophage) activity in infected THP-1 cells, resazurin; assay type: cell-based
Method: (§1) THP-1 cells were infected with either M. avium or M. abscessus at an MOI of 10 for 4 h prior to treatment. Following infection, cells were washed twice with PBS to remove non-phagocytosed bacteria. Fresh medium was then added, and cells were treated with concentrations ranging from 64 to 0.24 µg/mL and incubated for 24 h at 37°C with 5% CO2. Following 24 h of treatment, cells were treated with resazurin (0.04 mg/mL) and incubated for an additional 3–5 days. Absorbance was measured for each well at 570 and 600 nm. The percent growth reduction was calculated relative to treated and untreated controls.

[2] = tested on: M. avium ATC 700891 (MAC 101) in THP-1 cells; assay: as above; assay type: cell-based
Method: as §1

[3] = tested on: M. avium ATC 700891 (MAC 101); assay: In vitro MIC against NTM, microbroth dilution; assay type: cell-based; conditions: 7 days; for MIC: Mycobacterium avium, 168 h
MAB = conditions: at 20 µM; cited from earlier work
Mtb [4] = assay: microbe, parasite or virus in culture; assay type: cell-based, Mycobacterium tuberculosis; conditions: for EC50: read-out: In vitro EC50; for EC90: read-out: In vitro EC90
Mtb [5] = conditions: earlier report; read-out: EC50 against Mtb in vitro; cited from earlier work
[6] = tested on: primary bone marrow-derived macrophages (BMMΦ); conditions: earlier report; cited from earlier work
[7] = tested on: primary bone marrow-derived macrophages (BMMΦ); conditions: for Si (CC50/EC50): macrophage CC50 / in vitro Mtb EC50; for S.I. (CC50 / EC50): BMMΦ CC50 / ex vivo EC50, Table S1
physchem = assay type: physicochemical; conditions: kinetic from dmso stock
Method: The kinetic solubility assay was conducted as previously described ([18]). Briefly, using methods described by Bevan and Lloyd ([56]), the assay was performed with 7-point (twofold) dilutions of the compounds, from 200 to 3.125 μM along with mebendazole, bexarotene, and aspirin as controls. The drug dilutions were added to PBS, pH 7.4, with a DMSO concentration of 1% (final), and incubated at 37°C for 2 h. The absorbance at 620 nm was measured for each drug dilution to estimate the solubility of the compound in triplicate/ dilution.

in vitro [8] = conditions: mouse
[9] = tested on: Mtb CDC1551 FFluc reporter strain in primary bone marrow-derived macrophages; set-up: method as in PMID 31405862; conditions: earlier report; read-out: EC50 against intracellular Mtb; cited from earlier work
[10] = assay type: in vitro ADME, mouse
Method: The mouse microsomal stability assay was conducted as described by Obach ([57]), and the results are presented as the percentages remaining after 30 min. Values greater than 100% are likely due to changes in the solubility of the compounds over the course of the assay and represent high stability in microsomes.

H37Rv (ΔkatG) = assay type: cell-based
H37Rv = assay: microbe, parasite or virus in culture; assay type: cell-based; conditions: Mycobacterium tuberculosis
Mtb Erdman = assay type: in vivo, Mycobacterium tuberculosis; conditions: for median lung bacterial burden: C57Bl/6 mice, oral gavage 2 weeks; for median lung bacterial burden / colonies in spleens (dissemination): INH 25 mg/kg, MSU compounds 200 mg/kg
[11] = tested on: Mtb CDC1551 FFluc reporter strain in primary bone marrow-derived macrophages; assay: microbe, parasite or virus in culture; assay type: cell-based; conditions: Mycobacterium tuberculosis, Macrophage; for EC90: read-out: ex vivo EC90
in vitro [12] = assay type: cell-based; conditions: human, 24 h treatment
Method: For additional cell lines including HepG2, HeLa, and THP-1, the following protocol was used. HepG2 (ATCC HB-8065) and HeLa (ATCC CCL-2) were cultured in cEMEM supplemented with 10% (vol/vol)/FBS and 1%(vol/vol) PenStrep. THP-1 cells were cultured in cRPMI-1640 medium (ATCC 30-2001) supplanted with 10% (vol/vol) FBS and 0.05 mM 2-mercaptoethanol (Sigma M3148). THP-1 cells were seeded in 96 well plates at 1 × 10^5 cells/mL with complete medium. HepG2 and HeLa cells were seeded in 96 well plates with cEMEM at 1 × 10^6 cells/mL. Cells were treated with compounds by dose response in a range of 128–0.48 µg/mL in triplicate or mitomycin C at a range of 128–0.0625 µM. Cells were treated for 24 h at 37°C with 5% CO2. Cells were then treated with either MTT or resazurin for 4 h. Absorbance was then measured at 570 nm for MTT plates. Percent cytotoxicity was calculated relative to positive mitomycin C and untreated controls. Percent cytotoxicity was used to calculate the IC50 using Graphpad prism software using non-linear regression analysis.

[13] = assay type: in vivo, female C57Bl/6 mice; conditions: 200 mg/kg oral in corn oil
Method: Female C57Bl/6 mice were dosed with 200 mg/kg (based on the average body mass of 27 mice) of MSU-43085, MSU-43165, or MSU-43170 formulated in corn oil by oral gavage. At 1-, 2-, and 4-h post treatment, blood samples were taken from three mice from each treatment group by cardiac puncture and placed in BD Lithium HeparinN Vacutainer tubes. Plasma was separated from whole blood by centrifuge, and compounds were methanol extracted. Lungs were harvested from mice 4- h post treatment. Lung samples were homogenized using a closed tissue grinder system (Fisherbrand—02-542-09), and compounds were methanol extracted from lung homogenates. Methanol-extracted samples were quantified by UPLC/MS/MS.

Mtb [14] = conditions: cited from earlier work
[15] = Mycobacteroides abscessus, ATCC19977, 168 h
[16] = Mycobacterium tuberculosis, 144 h
[17] = 37 °C, pH 2, aqueous buffer, Table S5, read-out: Kinetic solubility at pH 2.0
[18] = 37 °C, pH 7.4, aqueous buffer, Table S5, read-out: Kinetic solubility at pH 7.4
[19] = Table S5, % remaining after 30 minutes with mouse microsomes
[20] = intracellular Mtb in BMMΦ, Table S1, read-out: ex vivo EC50
[21] = intracellular Mtb in BMMΦ, Table S1
[22] = read-out: HeLa Cytotoxicity (IC50)
[23] = read-out: HepG2 Cytotoxicity (IC50)
[24] = read-out: THP-1 Cytotoxicity (IC50)
[25] = read-out: intra-macrophage EC50
[26] = 37 °C, aqueous buffer, PBS pH 7.4, read-out: Kinetic solubility pH 7.4
[27] = aqueous buffer, PBS pH 2.0, read-out: Kinetic solubility pH 2.0
[28] = mouse microsomes, % remaining after 30 min

## NCC[C@H](O)C(=O)N[C@@H]1C[C@H](N)[C@@H](O[C@H]2O[C@H](CN)[C@@H](O)[C@H](O)[C@H]2O)[C@H](O)[C@H]1O[C@H]1O[C@H](CO)[C@@H](O)[C@H](N)[C@H]1O [Amikacin]
M. abscessus ATCC 19977
  MIC: 6.8 µM (≈ 3.98 µg/mL)
M. abscessus ATCC 19977; [15]
  MIC: 6.8 µM (≈ 3.98 µg/mL)

## COc1nc2ccc(Br)cc2cc1[C@@H](c1ccccc1)[C@@](O)(CCN(C)C)c1cccc2ccccc12 [Bedaquiline]
Erdman
  EC50: 220 nM

## CC[C@H]1OC(=O)[C@H](C)[C@@H](O[C@H]2C[C@@](C)(OC)[C@@H](O)[C@H](C)O2)[C@H](C)[C@@H](O[C@@H]2O[C@H](C)C[C@H](N(C)C)[C@H]2O)[C@](C)(OC)C[C@@H](C)C(=O)[C@H](C)[C@@H](O)[C@]1(C)O [Clarithromycin]
[1]
  Ex vivo (>90% inhibition), M. abscessus ATCC 19977: 86 µM
[2]
  Ex vivo (>90% inhibition), M. avium ATC 700891 (MAC 101): 171 µM
M. abscessus ATCC 19977; [15]
  MIC: 1.4 µM (≈ 1.05 µg/mL)
[3]
  MIC: 0.08 µM (≈ 0.0598 µg/mL)

## CC(C)/N=c1\cc2n(-c3ccc(Cl)cc3)c3ccccc3nc-2cc1Nc1ccc(Cl)cc1 [Clofazimine]
Erdman
  EC50: 300 nM

## CC(C)N(C(=O)CSc1nc2ccc(Cl)cc2[nH]1)C(C)C [HC2099]
MAB
  inhibition of MAB growth in vitro: 96.5%
Mtb [4]; [16]
  EC50: 5900 nM
  EC90: 13700 nM
Mtb [5]
  EC50: 1700 nM
[6]
  cytotoxicity in macrophages: no detectable cytotoxicity
[7]
  Si (CC50/EC50): >13
physchem; [17]
  solubility kinetic: > 300 µM
physchem; [18]
  solubility kinetic: 178 µM (≈ 58 µg/mL)
In vitro [8]
  CC50: > 80000 nM
[9]
  EC50: < 300 nM
[10]; [19]
  Microsome Stability: 71%

## Cc1ccc2nc(SCC(=O)N(C(C)C)C(C)C)[nH]c2c1 [HC2183]
Mtb [4]; [16]
  EC50: 7300 nM
  EC90: 16000 nM
Mtb [5]
  EC50: 3200 nM
[6]
  cytotoxicity in macrophages: no detectable cytotoxicity
[7]
  Si (CC50/EC50): >11
physchem; [17]
  solubility kinetic: > 300 µM
physchem; [18]
  solubility kinetic: > 200 µM
In vitro [8]
  CC50: > 80000 nM
[9]
  EC50: 3000 nM
[10]; [19]
  Microsome Stability: 25%

## NNC(=O)c1ccncc1 [Isoniazid]
H37Rv (ΔkatG)
  MIC, H37Rv (ΔkatG): >14.5 µM
H37Rv; read-out: MIC, H37Rv
  MIC: 0.2 µM
Mtb Erdman
  median lung bacterial burden: no colonies were isolated
  colonies in spleens (dissemination): no colonies were isolated

## Cc1cc2nc(SCC(=O)N(C(C)C)C(C)C)[nH]c2cc1C [MSU-42766]
H37Rv (ΔkatG)
  MIC, H37Rv (ΔkatG): 1.5 µM (≈ 0.479 µg/mL)
H37Rv; read-out: MIC, H37Rv
  MIC: 1.5 µM
H37Rv; read-out: activity (MIC) against WT
  MIC: 0.5 µg/mL
Mtb [4]; [16]
  EC50: 1300 nM
  EC90: 8200 nM
[11]; [20]
  EC50: 410 nM
[11]; [21]
  EC90: 970 nM
In vitro [12]; [22]
  IC50: > 128 µg/mL
In vitro [12]; [23]
  IC50: > 128 µg/mL
In vitro [12]; [24]
  IC50: 39.6 µg/mL (≈ 124 µM)
M. abscessus ATCC 19977
  MIC: 12 µM (≈ 3.83 µg/mL)
M. abscessus ATCC 19977; [15]
  MIC: 12 µM (≈ 3.83 µg/mL)
Erdman
  EC50: 1300 nM
[3]
  In vitro MIC, M. avium ATC 700891 (MAC 101): no detectable activity
  MIC: > 200 µM
[7]
  S.I. (CC50 / EC50): > 195.6
  Si (CC50/EC50): >61
In vitro [8]
  CC50: > 80000 nM

## CC(C)N(C(=O)CNc1nc2cc(Cl)c(Cl)cc2[nH]1)C(C)C [MSU-43165]
[13]; 1 h
  Blood plasma concentration (1 h, fold EC50): 1.3 fold EC50 and 1.3× fold EC50
Mtb [4]; [16]
  EC50: 380 nM
  EC90: 628 nM
Mtb [4]
  EC90: 630 nM
[11]; [20]
  EC50: 130 nM
[11]; [21]
  EC90: 150 nM
[11]; [25]
  EC50: 134 nM
Mtb Erdman; 200 mg/kg oral, 2 weeks, not significant (P > 0.99)
  absolute difference of the median lung burden vs vehicle control: 1.6 × 10^4 CFUs/mL
Mtb Erdman
  median lung bacterial burden: 5.7 × 10^3 CFUs/mL
  colonies in spleens (dissemination): colonies could also be detected
[7]
  S.I. (CC50 / EC50): > 596.6
  Si (CC50/EC50): >210
physchem; [26]
  solubility kinetic: > 150 µM
physchem; [27]
  solubility kinetic: > 300 µM
In vitro [8]
  CC50: > 80000 nM
[10]; [19]
  Microsome Stability: 106%
[10]; [28]
  Microsome Stability: 106%

## CC(C)N(C(=O)COc1nc2cc(Cl)c(Cl)cc2[nH]1)C(C)C [MSU-43170]
[13]; 2 h time point (1 h unavailable)
  Blood plasma concentration (2 h, fold EC50): 4 fold EC50 and 4× ^ a fold EC50
Mtb [4]; [16]
  EC50: 116 nM
  EC90: 263 nM
Mtb [4]
  EC50: 120 nM
  EC90: 260 nM
[11]; [21]
  EC90: 140 nM
[11]; [25]
  EC50: 35 nM
[7]
  S.I. (CC50 / EC50): > 2285
  Si (CC50/EC50): >667
physchem; [26]
  solubility kinetic: > 50 µM
physchem; [27]
  solubility kinetic: > 300 µM
In vitro [8]
  CC50: > 80000 nM
[10]; [19]
  Microsome Stability: 95%
[10]; [28]
  Microsome Stability: 95%

## CO[C@@]12[C@H](COC(N)=O)C3=C(C(=O)C(C)=C(N)C3=O)N1C[C@@H]1N[C@@H]12 [Mitomycin C, reference compound]
In vitro [12]; [22]
  IC50: 10.5 µg/mL (≈ 31.5 µM)
In vitro [12]; [23]
  IC50: 23 µg/mL (≈ 68.8 µM)
In vitro [12]; [24]
  IC50: 3.09 µg/mL (≈ 9.25 µM)

## COc1c(N2C[C@@H]3CCCN[C@@H]3C2)c(F)cc2c(=O)c(C(=O)O)cn(C3CC3)c12 [Moxifloxacin]
H37Rv (ΔkatG)
  MIC, H37Rv (ΔkatG): 0.15 µM (≈ 0.0602 µg/mL)
H37Rv; read-out: MIC, H37Rv
  MIC: 0.15 µM

## CC1(C)CCC(NC(=O)c2cc3c(Cl)cc(Cl)cc3[nH]2)CC1 [NITD-304]
Mtb [14]
  MIC: 0.02 µM (≈ 0.00679 µg/mL)

## CC1(C)CCC(NC(=O)c2cc3c(F)cc(F)cc3[nH]2)CC1 [NITD-349]
Mtb [14]
  MIC: 0.03 µM (≈ 0.00919 µg/mL)

## CO[C@H]1/C=C/O[C@@]2(C)Oc3c(C)c(O)c4c(O)c(c(/C=N/N5CCN(C)CC5)c(O)c4c3C2=O)NC(=O)/C(C)=C\C=C\[C@H](C)[C@H](O)[C@@H](C)[C@@H](O)[C@@H](C)[C@H](OC(C)=O)[C@@H]1C [Rifampicin]
[3]
  MIC: 0.07 µM (≈ 0.0576 µg/mL)
